Consider 11 compounds from patent US8101774B2, “Ester derivatives and medicinal use thereof” (Japan Tobacco Inc., priority 2004, dated 2012).

T1 sequence (P55157 19-894): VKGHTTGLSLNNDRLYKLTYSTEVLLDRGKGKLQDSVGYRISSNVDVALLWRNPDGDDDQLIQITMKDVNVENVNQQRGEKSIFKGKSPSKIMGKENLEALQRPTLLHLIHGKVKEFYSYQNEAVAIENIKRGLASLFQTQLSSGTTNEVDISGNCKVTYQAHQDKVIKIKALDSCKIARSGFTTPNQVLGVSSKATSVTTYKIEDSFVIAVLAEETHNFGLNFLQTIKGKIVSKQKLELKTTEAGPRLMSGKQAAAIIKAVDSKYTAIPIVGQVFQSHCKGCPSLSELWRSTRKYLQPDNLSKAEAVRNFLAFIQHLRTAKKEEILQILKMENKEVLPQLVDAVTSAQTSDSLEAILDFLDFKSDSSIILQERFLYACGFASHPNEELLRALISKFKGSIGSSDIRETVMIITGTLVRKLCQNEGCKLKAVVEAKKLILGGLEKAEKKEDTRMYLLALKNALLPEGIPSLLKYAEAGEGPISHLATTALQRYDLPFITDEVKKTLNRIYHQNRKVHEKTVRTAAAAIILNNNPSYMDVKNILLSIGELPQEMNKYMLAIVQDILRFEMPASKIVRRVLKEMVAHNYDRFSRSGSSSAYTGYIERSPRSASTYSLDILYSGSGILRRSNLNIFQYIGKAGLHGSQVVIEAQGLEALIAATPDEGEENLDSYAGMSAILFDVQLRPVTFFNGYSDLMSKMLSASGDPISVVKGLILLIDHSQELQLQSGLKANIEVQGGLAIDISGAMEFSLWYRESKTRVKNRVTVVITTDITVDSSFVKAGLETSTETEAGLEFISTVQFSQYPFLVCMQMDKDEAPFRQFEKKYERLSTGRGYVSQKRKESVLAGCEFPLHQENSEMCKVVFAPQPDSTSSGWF
T1 sequence (P07237 18-508 partner): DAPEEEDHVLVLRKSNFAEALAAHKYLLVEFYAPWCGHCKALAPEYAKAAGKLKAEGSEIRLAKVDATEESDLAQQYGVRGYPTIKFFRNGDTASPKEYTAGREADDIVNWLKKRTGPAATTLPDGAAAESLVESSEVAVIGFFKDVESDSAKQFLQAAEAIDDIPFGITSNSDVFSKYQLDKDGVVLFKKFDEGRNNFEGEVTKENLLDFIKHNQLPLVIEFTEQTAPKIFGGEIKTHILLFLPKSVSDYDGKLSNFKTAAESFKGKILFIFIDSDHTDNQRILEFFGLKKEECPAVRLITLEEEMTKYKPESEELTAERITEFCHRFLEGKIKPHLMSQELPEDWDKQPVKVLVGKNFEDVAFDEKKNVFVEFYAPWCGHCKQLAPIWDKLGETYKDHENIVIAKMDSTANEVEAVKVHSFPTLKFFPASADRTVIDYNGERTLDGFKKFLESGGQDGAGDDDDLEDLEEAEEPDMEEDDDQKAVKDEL

The test has as its target T1, Microsomal triglyceride transfer protein (MTP) from human small intestine microsome (Homo sapiens, UniProt P55157).
T1 construct: Human small intestine microsome was dialyzed against 10 mM phosphate buffer; tissue Tissue Transforming Technologies, Inc; host or cells: human small intestine microsome
Description: Inhibition test of interliposomal triglyceride (TG) transfer activity by MTP. The conditions noted are these: purified MTP from human small intestine microsome, 37° C., 1.5 hours. Format: biochemical. As for the experimental part:
Microsomal triglyceride transfer protein (MTP) from human small intestine microsome (manufactured by Tissue Transforming Technologies, Inc.) was purified in such a way described below. Human small intestine microsome was dialyzed against 10 mM phosphate buffer (300 mL, pH 6.8) twice for about 2 hours and once for further not less than 12 hours, at about 4° C. After dialysis, the mixture was centrifuged at 4° C. and 15,000×g for 5 minutes and then the supernatant was recovered. The previously recovered supernatant was purified by column chromatography on diethylaminoethyl (DEAE) Sepharose using FPLC (Fast Performance Liquid Chromatography) system, and the purified MTP was used for the test as described below.
Small unilamellar-vesicle (SUV) liposome (hereinafter described as donor, containing 0.25% (mol/mol) triolein and 5% (mol/mol) cardiolipin) constituted by triolein labeled with ^14C and non-labeled SUV liposome (hereinafter described as acceptor, containing […] triolein) were prepared in such a way described below.
Firstly, in order to prepare the donor, there were volatilized under a stream of nitrogen gas a phosphatidylcholine solution containing phosphatidylcholine labeled with ^3H, a cardiolipin solution, and a triolein solution containing triolein labeled with ^14C (each solution had been already dissolved in an appropriate organic solvent), or in order to prepare the acceptor, there were volatilized under nitrogen flow a phosphatidylcholine solution containing phosphatidylcholine labeled with ^3H and a cardiolipin solution (each solution had been already dissolved in an appropriate organic solvent). An appropriate amount of a reaction buffer (15 mM Tris-HCl buffer containing 1 mM EDTA.Na2, 40 mM NaCl, and 0.5% (w/v) bovine serum albumin, pH 7.4) was added thereto to be emulsified. The emulsions were treated with ultrasonication under ice-cooling and centrifuged at 4° C. and 159,000×g for 2 hours. Each of the resulting supernatant was used for donor or acceptor.
Each radioactivity in the acceptor and the donor was measured by liquid scintillation counter, and a mixed solution of the acceptor and the donor was prepared with a reaction buffer so as to be a donor-derived radioactivity of 16,000 dpm/400 μL and a acceptor-derived radioactivity of 4,000 dpm/[…]. 400 μL of the mixed solution of the donor and the acceptor, 45 μL of the reaction buffer, 50 μL of MTP (20 μg/mL), and 5 μL of a sample dissolved in DMSO (dimethyl sulfoxide) or 5 μL of DMSO was mixed (total amount: 500 μL). The mixture was incubated at 37° C. for 1.5 hours. After completion of the incubation, 1.25 mL of a suspension of DEAE cellulose (66.7% (v/v)) in 15 mM Tris-HCl buffer (pH 7.4) containing 1 mM EDTA.Na2 was added to the above solution. The mixture was centrifuged to separate the donor (adsorbed on the DEAE cellulose to precipitate) and the acceptor (the supernatant). The radioactivity in the acceptor was measured by liquid scintillation counter. The value obtained by subtracting the radioactivity in a blank group from the radioactivity in the acceptor of a DMSO group was determined as MTP-mediated TG transfer activity, and it was compared with the value obtained by subtracting the radioactivity in the blank group from the radioactivity in a sample group. Here, the blank was prepared by adding 10 mM phosphate buffer (pH 6.8) containing 250 mM NaCl in place of MTP. Inhibition rate (%) was calculated from values obtained according to the following equation. Inhibition rate(%)=(1 minus((radioactivity of sample group minus radioactivity of blank group)/(radioactivity of DMSO group minus radioactivity of blank group)))×100.
50% Inhibition rate (IC50) was determined on the basis of the above equation.
In the case of `COC(=O)c1ccc(OC(=O)CCCc2ccc(NC(=O)c3ccccc3-c3ccc(C(F)(F)F)cc3)c(C(=O)N(C)C)c2)c(C(F)(F)F)c1` [Compound 1-20, 4-(4-{3-dimethylcarbamoyl-4-[(4′-trifluoromethylbiphenyl-2-carbonyl)amino]phenyl}butyryloxy)-3-trifluoromethylbenzoic acid methyl ester], the IC50 (in general, the point on the concentration scale where inhibition reaches its midpoint) was 10 to 100 nM. For the compound `COC(=O)c1ccc(OC(=O)CCCc2ccc(NC(=O)c3ccccc3-c3ccc(C(F)(F)F)cc3)c(C(=O)N(C)C)c2)cc1C(F)(F)F` [Compound 1-21, 4-(4-{3-dimethylcarbamoyl-4-[(4′-trifluoromethylbiphenyl-2-carbonyl)amino]phenyl}butyryloxy)-2-trifluoromethylbenzoic acid methyl ester], the half-maximal inhibitory concentration (IC50) was 10 to 100 nM. `CC(=O)c1ccc(OC(=O)CCCc2ccc(NC(=O)c3ccccc3-c3ccc(C(F)(F)F)cc3)c(C(=O)N(C)C)c2)cc1` [Compound 1-22, 4-{3-dimethylcarbamoyl-4-[(4′-trifluoromethylbiphenyl-2-carbonyl)amino]phenyl}butyric acid 4-acetylphenyl ester] returned an IC50 of 10 to 100 nM. The compound `CN(C)C(=O)c1cc(CCCC(=O)Oc2ccc(C#N)cc2)ccc1NC(=O)c1ccccc1-c1ccc(C(F)(F)F)cc1` [Compound 1-23, 4-{3-dimethylcarbamoyl-4-[(4′-trifluoromethylbiphenyl-2-carbonyl)amino]phenyl}butyric acid 4-cyanophenyl ester] gave an IC50 of 10 to 100 nM. Turning to `CN(C)C(=O)c1cc(CCCC(=O)Oc2ccc(C(=O)OCc3ccccc3)cc2)ccc1NC(=O)c1ccccc1-c1ccc(C(F)(F)F)cc1` [Compound 1-24, 4-(4-{3-dimethylcarbamoyl-4-[(4′-trifluoromethylbiphenyl-2-carbonyl)amino]phenyl}butyryloxy)benzoic acid benzyl ester], the IC50 is less than 10 nM. With `CN(C)C(=O)c1cc(CCCC(=O)Oc2ccc(C(=O)O)cc2)ccc1NC(=O)c1ccccc1-c1ccc(C(F)(F)F)cc1` [Compound 1-25, 4-(4-{3-dimethylcarbamoyl-4-[(4′-trifluoromethylbiphenyl-2-carbonyl)amino]phenyl}butyryloxy) benzoic acid], the IC50 was in the range of 100 to 1000 nM.

Compound `COC(=O)c1ccc(OC(=O)CCCc2ccc(NC(=O)c3ccccc3-c3ccc(C(F)(F)F)cc3)c(C(=O)N3CCOCC3)c2)cc1` [Compound 1-26, 4-(4-{3-(morpholine-4-carbonyl)-4-[(4′-trifluoromethylbiphenyl-2-carbonyl)amino]phenyl}butyryloxy)benzoic acid methyl ester] had an IC50 of 10 to 100 nM. The compound `COC(=O)c1ccc(OC(=O)CCc2ccc(NC(=O)c3ccccc3-c3ccc(C(F)(F)F)cc3)c(C(=O)N(C)C)c2)cc1` [Compound 1-27, 4-(3-{3-dimethylcarbamoyl-4-[(4′-trifluoromethylbiphenyl-2-carbonyl)amino]phenyl}propionyloxy)benzoic acid methyl ester] returned a 50% inhibitory concentration (IC50) of 10 to 100 nM. On to `COC(=O)c1ccc(OC(=O)CCCc2ccc(NC(=O)c3cccnc3-c3ccc(C(F)(F)F)cc3)c(C(=O)N(C)C)c2)cc1` [Compound 1-28, 4-[4-(3-dimethylcarbamoyl-4-{[2-(4-trifluoromethylphenyl)pyridine-3-carbonyl]amino}phenyl)butyryloxy]benzoic acid methyl ester], for which the 50% inhibitory concentration (IC50) is less than 10 nM. The result for `CC(C)OC(=O)c1ccc(OC(=O)CCCc2ccc(NC(=O)c3ccncc3-c3ccc(C(F)(F)F)cc3)c(C(=O)N(C)C)c2)cc1` [Compound 1-29, 4-[4-(3-dimethylcarbamoyl-4-{[3-(4-trifluoromethylphenyl)pyridine-4-carbonyl]amino}phenyl)butyryloxy]benzoic acid isopropyl ester] reads less than 10 nM; that for `COC(=O)c1ccc(OC(=O)CCCc2ccc(NC(=O)c3ccncc3-c3ccc(C(F)(F)F)cc3)c(C(=O)N(C)C)c2)cc1` [Compound 1-30, 4-[4-(3-dimethylcarbamoyl-4-{[3-(4-trifluoromethylphenyl)pyridine-4-carbonyl]amino}phenyl)butyryloxy]benzoic acid methyl ester], 10 to 100 nM.
